Test results taken from publication PMC2994747, “Molecular Characterization of c-Abl/c-Src Kinase Inhibitors Targeted against Murine Tumour Progenitor Cells that Express Stem Cell Markers” (PLoS ONE, 2010).

How the values were obtained:
A2C12 [1] = assay: Whole genome expression analysis (Affymetrix microarray); format: cell-based, mouse; conditions: IC50 concentration, 96 h
Description: (§1) The cells were harvested and RNA was isolated using RNeasy Mini Kit (Qiagen, Hilden, Germany) according to the instructions of the manufacturer. The isolated RNA (250 ng) was processed further using standard protocols as described recently with the exception of the 3′ IVT Express Kit (Affymetrix, High Wycombe, UK) that was utilized according to instructions. Quality control of cRNA was done with the Agilent 2100 Bioanalyzer (Agilent Tech according to manufacturer's protocols. Following fragmentation, cRNA of each sample was hybridized to Affymetrix GeneChip® Mouse Genome 430 2.0 or Human Genome U133 Plus 2.0 and scanned with an Affymetrix 3000 7G scanner.
(§2) The resultant data was normalized by Probe Logarithmic Intensity Error Estimation (PLIER) algorithm. Statistical analysis was carried out with the ArrayTrack software (National Center for Toxicological Research/FDA, Jefferson, AR, USA) using SAM algorithm.

GammaA3 = assay: as above; format: cell-based, mouse; conditions: IC50 concentration, 96 h
Description: as §1, §2

A2C12 [2] = assay: Cell cycle analysis by flow cytometry; format: cell-based, mouse; conditions: IC50 concentration, 96 h
In short: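 Read-out is DNA content by flow cytometry using a commercial cell-cycle staining kit. Samples pass sequentially through kit solutions A (10 min, room temperature), B and C, the last step at 4°C protected from light, and are then held on ice in the dark.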

c-Src = target: T1, c-Src (Homo sapiens, UniProt P12931); assay: Src filter-binding kinase assay (Src Assay Kit); format: biochemical
T1 construct: His tag; purchased Upstate (Lake Placid, NY, USA)
Description: (§3) Baculovirus-produced recombinant purified his-tagged active against human Src and Abl were purchased from Upstate (Lake Placid, NY, USA).
(§4) Src activity was measured in a filter-binding assay using the Src Assay Kit (Upstate, Lake Placid, NY, USA), according to the manufacturer's protocol, using the specific Src peptide substrate [[…]] in the presence of 0.125 pmol of Src and 0.160 pmol of [γ-^32P]ATP. Abl activity was measured in a filter-binding assay using an Abl specific peptide substrate (Abtide, Upstate). Reaction conditions were (in a final volume of 10 µl): 25 mM Tris-HCl pH 7.5, 1 mM DTT, 0.012 µM [γ-^32P]ATP, 0.022 µM c-Abl. Reactions were incubated 10 min at 30°C.The samples (9 µl) were spotted on paper cellulose filters which were washed according to the manufacturer's protocol. Filter-bound radioactivity was measured by liquid scintillation with a Microbeta-Trilux apparatus (PerkinElmer, Waltham, MA, USA).
(§5) The ID50 were converted to Ki according to a competitive mechanism with respect to the substrate ATP. […] Since (i) the ATP concentration was limiting, i.e., [ATP], Km(ATP), and (ii) the enzyme concentration was not negligible with respect to the ATP concentration, the classical Cheng-Prusoff relationship was not applicable. Consequently, Ki values were calculated according to [drawing 3] (2) where S0 is the concentration of the competing substrate (ATP) and E0 is the concentration of the enzyme. Each experiment was done in triplicate and mean values were used for the interpolation. Curve fitting was performed with the program GraphPad Prism.

[3] = tested on: murine and human cell lines; assay: Whole genome expression analysis, statements over several cell lines; format: cell-based
Description: as §1, §2

c-Abl = target: T2, c-Abl (Homo sapiens, UniProt P00519); assay: Abl filter-binding kinase assay (Abtide, [γ-32P]ATP); format: biochemical; conditions: isolated Abl; calculated from ID50, ATP-competitive; E0 0.005, S0 0.012 µM
T2 construct: His tag; purchased Upstate (Lake Placid, NY, USA)
Description: as §3, §4, §5

T1 sequence (P12931 whole entry): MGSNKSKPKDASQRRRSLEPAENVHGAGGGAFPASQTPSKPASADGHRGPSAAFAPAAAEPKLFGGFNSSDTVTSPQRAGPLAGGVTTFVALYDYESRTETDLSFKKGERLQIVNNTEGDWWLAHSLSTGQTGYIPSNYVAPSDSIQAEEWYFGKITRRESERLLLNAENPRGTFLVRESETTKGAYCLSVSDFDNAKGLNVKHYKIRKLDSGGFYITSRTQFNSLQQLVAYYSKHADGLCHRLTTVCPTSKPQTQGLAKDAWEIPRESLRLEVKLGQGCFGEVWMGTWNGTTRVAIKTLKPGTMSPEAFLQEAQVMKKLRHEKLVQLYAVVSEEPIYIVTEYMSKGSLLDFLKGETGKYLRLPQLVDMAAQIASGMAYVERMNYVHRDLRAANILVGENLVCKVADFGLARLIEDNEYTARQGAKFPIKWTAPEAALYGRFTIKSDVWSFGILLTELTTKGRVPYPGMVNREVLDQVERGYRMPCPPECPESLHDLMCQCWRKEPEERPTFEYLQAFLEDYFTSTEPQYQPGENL
T2 sequence (P00519 whole entry): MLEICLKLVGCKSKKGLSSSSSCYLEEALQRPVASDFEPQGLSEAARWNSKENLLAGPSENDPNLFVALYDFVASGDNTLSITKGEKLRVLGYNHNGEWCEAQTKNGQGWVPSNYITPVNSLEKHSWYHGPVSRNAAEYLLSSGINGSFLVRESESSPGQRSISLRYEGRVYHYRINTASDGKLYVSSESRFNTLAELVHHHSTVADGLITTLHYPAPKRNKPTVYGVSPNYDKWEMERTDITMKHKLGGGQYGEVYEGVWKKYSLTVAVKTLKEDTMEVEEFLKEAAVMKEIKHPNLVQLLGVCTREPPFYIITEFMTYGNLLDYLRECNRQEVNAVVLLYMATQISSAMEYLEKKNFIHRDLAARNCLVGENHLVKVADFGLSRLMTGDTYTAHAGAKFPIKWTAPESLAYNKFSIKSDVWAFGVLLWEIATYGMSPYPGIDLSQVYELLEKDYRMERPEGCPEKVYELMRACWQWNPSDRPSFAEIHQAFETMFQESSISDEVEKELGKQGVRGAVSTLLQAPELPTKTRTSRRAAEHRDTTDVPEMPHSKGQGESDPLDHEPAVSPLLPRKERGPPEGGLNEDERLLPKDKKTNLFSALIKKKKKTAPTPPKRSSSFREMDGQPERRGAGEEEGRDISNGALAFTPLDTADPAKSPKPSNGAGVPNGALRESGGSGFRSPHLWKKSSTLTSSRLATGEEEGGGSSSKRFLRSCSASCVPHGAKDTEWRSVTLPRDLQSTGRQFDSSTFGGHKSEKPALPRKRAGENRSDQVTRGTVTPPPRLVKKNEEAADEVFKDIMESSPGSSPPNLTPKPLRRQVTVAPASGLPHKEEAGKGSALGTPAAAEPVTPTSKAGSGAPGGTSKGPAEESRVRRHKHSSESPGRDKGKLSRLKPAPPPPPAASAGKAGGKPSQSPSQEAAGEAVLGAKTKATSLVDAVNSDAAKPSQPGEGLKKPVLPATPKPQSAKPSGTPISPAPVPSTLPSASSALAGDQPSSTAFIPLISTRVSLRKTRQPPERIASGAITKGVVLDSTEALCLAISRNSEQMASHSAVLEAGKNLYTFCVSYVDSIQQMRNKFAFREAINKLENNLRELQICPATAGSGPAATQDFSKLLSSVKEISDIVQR

With `Clc1cccc(Nc2nc(SC3CCCC3)nc3c2cnn3CC(Cl)c2ccccc2)c1` (stereo not drawn) [Si135] as the molecule, how does the “Significantly differentially regulated genes, downregulated (number)” value (A2C12 [1]; SAM FDR<0.01, FC>2) read?
Its value is 33.

And the “Significantly differentially regulated genes, upregulated (number)” value (A2C12 [1]; SAM FDR<0.01, FC>2)?
Its value is 118.

What about the Actg2 gene expression (A2C12 [1]; vs control) of the same molecule?
Its Actg2 gene expression is -4.51 log2 of fold change.

What about the Ctgf gene expression (A2C12 [1]; vs control) of the same molecule?
Its Ctgf gene expression is 1.05 log2 of fold change.

What about the Dusp3 gene expression (A2C12 [1]; vs control) of the same molecule?
Its Dusp3 gene expression is 1.06 log2 of fold change.

And the Gadd45a gene expression (A2C12 [1]; vs control)?
Its Gadd45a gene expression is 1.81 log2 of fold change.

And the Il6 gene expression (A2C12 [1]; vs control)?
The Il6 gene expression was -4.69 log2 of fold change.

And the Mmp13 gene expression (A2C12 [1]; vs control)?
Its Mmp13 gene expression is 2.95 log2 of fold change.

And the Mtm1 gene expression (A2C12 [1]; vs control)?
Its Mtm1 gene expression is 1.00 log2 of fold change.

And the Ptn gene expression (A2C12 [1]; vs control)?
The Ptn gene expression was -5.35 log2 of fold change.

And the Ptprg gene expression (A2C12 [1]; vs control)?
The Ptprg gene expression was 1.05 log2 of fold change.

What about the “Significantly differentially regulated genes, downregulated (number)” value (GammaA3; SAM FDR<0.01, FC>2) of the same molecule?
Its value is 66.

What about the “Significantly differentially regulated genes, upregulated (number)” value (GammaA3; SAM FDR<0.01, FC>2) of the same molecule?
The value was 79.

What about the Actg2 gene expression (GammaA3; vs control) of the same molecule?
Its Actg2 gene expression is -1.23 log2 of fold change.

What about the Ccl5 gene expression (GammaA3; vs control) of the same molecule?
Its Ccl5 gene expression is 3.04 log2 of fold change.

What about the Cenpa gene expression (GammaA3; vs control) of the same molecule?
Its Cenpa gene expression is 1.11 log2 of fold change.

And the Col1a1 gene expression (GammaA3; vs control)?
Its Col1a1 gene expression is -1.15 log2 of fold change.

And the Has2 gene expression (GammaA3; vs control)?
Its Has2 gene expression is -1.09 log2 of fold change.

And the Itga6 gene expression (GammaA3; vs control)?
Its Itga6 gene expression is 1.72 log2 of fold change.

What about the Mapk8ip1 gene expression (GammaA3; vs control) of the same molecule?
The Mapk8ip1 gene expression was -1.05 log2 of fold change.

What about the Mmp3 gene expression (GammaA3; vs control) of the same molecule?
The Mmp3 gene expression was 1.52 log2 of fold change.

What about the Mmp13 gene expression (GammaA3; vs control) of the same molecule?
Its Mmp13 gene expression is 1.29 log2 of fold change.

And the Ngef gene expression (GammaA3; vs control)?
The Ngef gene expression was 1.56 log2 of fold change.

What about the Tbrg4 gene expression (GammaA3; vs control) of the same molecule?
Its Tbrg4 gene expression is -1.09 log2 of fold change.

And the Ywhaz gene expression (GammaA3; vs control)?
Its Ywhaz gene expression is -1.04 log2 of fold change.

And the Zyx gene expression (GammaA3; vs control)?
The Zyx gene expression was -1.34 log2 of fold change.

What about the “Cells in G1 phase” value (A2C12 [2]) of the same molecule?
The value was 54.5%.

And the “Cells in G2 phase” value (A2C12 [2])?
Its value is 12.6%.

What about the “Cells in S phase” value (A2C12 [2]) of the same molecule?
Its value is 33%.

And the “Inhibition of c-Src kinase activity” value (c-Src)?
The value was “no inhibition”.

What about the “Genes regulated in common in A549 and CaCo2 (number)” value ([3]; Fig. 4A) of the same molecule?
Its value is 13.

And the “Significantly regulated genes (number)” value ([3]; IC50 concentration, 96 h, cell line not stated)?
The value was “approx. 150”.

What about the Ki (c-Abl) of the same molecule?
The Ki was 0.12 µM.

`CSc1nc(NCCc2ccc(Cl)cc2)c2cnn(CC(Cl)c3ccccc3)c2n1` (stereo not drawn) [Si57] was tested. Which “Cells in G1 phase” value (A2C12 [2]) did it give?
Its value is 44.1%.

What about the “Cells in G2 phase” value (A2C12 [2]) of the same molecule?
The value was 12.2%.

What about the “Cells in S phase” value (A2C12 [2]) of the same molecule?
Its value is 43.7%.
